Format in all cases: in vivo
Assay [1] concerns Aphis gossypii. As to the kind of experiment: Aphis gossypii test (cotton leaves dipped). The note with it: 4 ppm. The procedure: (§1) To produce a suitable preparation of active compound, 1 part by weight of active compound is mixed with the stated amounts of solvent and emulsifier, and the concentrate is diluted with emulsifier-containing water to the desired concentration.
Cotton leaves (Gossypium hirsutum) which are heavily infested by the cotton aphid (Aphis gossypii) are treated by being dipped into the preparation of active compound of the desired concentration. After the desired period of time, the kill in % is determined. 100% means that all aphids have been killed; 0% means that none of the aphids have been killed. The determined kill ratios are entered into Colby's formula (see page 39).

Assay [2] has as its system Plutella xylostella, normally sensitive strain. As to the kind of experiment: Plutella xylostella test (normally sensitive strain). As to the method:
as §1
Cabbage leaves (Brassica oleracea) are treated by being dipped into the preparation of active compound of the desired concentration and are populated with caterpillars of the diamondback moth (Plutella xylostella, normally sensitive strain) while the leaves are still moist.
(§2) After the desired period of time, the kill in % is determined. 100% means that all caterpillars have been killed; 0% means that none of the caterpillars have been killed. The determined kill ratios are entered into Colby's formula (see page 39).

Assay [3] concerns Plutella xylostella, resistant strain. As to the kind of experiment: Plutella xylostella test (resistant strain). As to the method:
as §1
Cabbage leaves (Brassica oleracea) are treated by being dipped into the preparation of active compound of the desired concentration and are populated with caterpillars of the diamondback moth (Plutella xylostella, resistant strain) while the leaves are still moist.
as §2

Assay [4] relates to Heliothis armigera. As to the kind of experiment: Heliothis armigera test (soybean shoots dipped). The procedure:
as §1
Soybean shoots (Glycine max) are treated by being dipped into the preparation of active compound of the desired concentration and are populated with caterpillars of the cotton bollworm (Heliothis armigera) while the leaves are still moist.
as §2

Assay [5] relates to Myzus persicae. As to the kind of experiment: Myzus persicae test (cabbage leaves dipped). The note with it: 20 ppm. As to the method: as §1
Cabbage leaves (Brassica oleracea) which are heavily infested by the green peach aphid (Myzus persicae) are treated by being dipped into the preparation of active compound of the desired concentration.
After the desired period of time, the kill in % is determined. 100% means that all aphids have been killed; 0% means that none of the aphids have been killed. The determined kill ratios are entered into Colby's formula (see page 39).

The subject of assay [6] is Phaedon cochleariae larvae. As to the kind of experiment: Phaedon cochleariae larvae test (cabbage leaves dipped). As to the method:
as §1
Cabbage leaves (Brassica oleracea) are treated by being dipped into the preparation of active compound of the desired concentration and are populated with larvae of the mustard beetle (Phaedon cochleariae) while the leaves are still moist.
After the desired period of time, the kill in % is determined. 100% means that all beetle larvae have been killed; 0% means that none of the beetle larvae have been killed. The determined kill ratios are entered into Colby's formula (see page 39).

Assay [7] concerns Spodoptera exigua. As to the kind of experiment: Spodoptera exigua test (cabbage leaves dipped). As to the method: as §1
Cabbage leaves (Brassica oleracea) are treated by being dipped into the preparation of active compound of the desired concentration and are populated with caterpillars of the beet army worm (Spodoptera exigua) while the leaves are still moist.
as §2

With `N#Cc1nn(-c2c(Cl)cc(C(F)(F)F)cc2Cl)c(N)c1[S+]([O-])C(F)(F)F` (stereo not drawn) [(2-16) fipronil, fipronil, reference compound], the “Kill rate in % after 6d found” value in assay [1] was 0%; in assay [2] (0.0064 ppm), 15%. Further, the “Kill rate in % after 4d found” value in assay [3] (0.0064 ppm) is reported as 0%.
With `Cc1cc(Cl)cc(C(=O)NC(C)C)c1NC(=O)c1cc(C(F)(F)F)nn1-c1ncccc1Cl` [Example I-1-9], the “Kill rate in % after 6d found” value in assay [1] came to 10%; in assay [4] (0.0064 ppm), 20%; in assay [4] (0.032 ppm) it was 0%; in assay [6] (0.0064 ppm), 0%; in assay [2] (0.00128 ppm) it was 0%; in assay [3] (0.032 ppm), 10%. In addition, the “Kill rate in % after 6d found” value in assay [7] (0.0064 ppm) came out at 15%; in assay [7] (0.032 ppm), 10%. The “Kill rate in % after 3d found” value in assay [4] (0.032 ppm, 3 d) is reported as 45%. Besides, in assay [5], the “Kill rate in % after 1d found” value is 0%. Besides, the “Kill rate in % after 4d found” value in assay [2] (0.16 ppm, 4 d) came to 0%; in assay [3] (0.00128 ppm), 0%.
Consider `O=C(NC(=O)c1c(F)cccc1F)Nc1ccc(Oc2ccc(C(F)(F)F)cc2Cl)cc1F` [(2-22) flufenoxuron, flufenoxuron, reference compound], for which the “Kill rate in % after 6d found” value in assay [7] (0.8 ppm) was 10%.
As for `COC(=O)N(C(=O)N1COC2(C(=O)OC)Cc3cc(Cl)ccc3C2=N1)c1ccc(OC(F)(F)F)cc1` (stereo not drawn) [(2-21) indoxacarb, indoxacarb, reference compound], the “Kill rate in % after 6d found” value is recorded as 10% in assay [6] (0.032 ppm) and 70% in assay [7] (0.16 ppm).
In the case of `CC[S+]([O-])c1c(C#N)nn(-c2c(Cl)cc(C(F)(F)F)cc2Cl)c1N` (stereo not drawn) [(2-17) ethiprole, ethiprole, reference compound], in assay [5], the “Kill rate in % after 1d found” value stood at 50%.
Regarding “emamectin [(2-9) emamectin, reference compound]”, the results for the “Kill rate in % after 6d found” value in assay [4] (0.00128 ppm) and in assay [3] (0.00128 ppm) were 0% and 40%, respectively.
